Experimental data taken from patent US20260132132A1, “3A,4,5,6-TETRAHYDRO-1 H-PYRAZOLO[3,4-C]PYRIDIN-7(7AH)-ONE DERIVATIVES AS FACTOR XIIA INHIBITORS” (KALVISTA PHARMACEUTICALS LIMITED, priority 2022, published 2026).
pIC50: −log10 of the molar value.

Legend:
[1] = molecular target: FXa (Homo sapiens, UniProt P00742); test: Related protease inhibition: FXa, fluorogenic substrate; type: biochemical; conditions: fluorogenic substrate at Km, 25° C.; H1-H3 = % activity at 40 μM
Method: Human serine protease enzyme Plasma Kallikrein, KLK1, FXa, Plasmin, Thrombin and Trypsin were assayed for enzymatic activity using an appropriate fluorogenic substrate at Km concentration, FXIa at fixed substrate concentration of 100 μM and various concentrations of the test compound.

[2] = molecular target: T1, Human Factor XIIa (hFXIIa) (Homo sapiens, UniProt P00748); test: Determination of Human Factor XIIa (hFXIIa) inhibition, fluorogenic substrate IC50 assay; type: biochemical; conditions: fluorogenic substrate H-DPro-Phe-Arg-AFC at Km, 25° C., read-out: Human FXIIa IC50
T1 construct: purchased Enzyme Research Laboratories
T1 sequence (P00748 373-615 limits assumed): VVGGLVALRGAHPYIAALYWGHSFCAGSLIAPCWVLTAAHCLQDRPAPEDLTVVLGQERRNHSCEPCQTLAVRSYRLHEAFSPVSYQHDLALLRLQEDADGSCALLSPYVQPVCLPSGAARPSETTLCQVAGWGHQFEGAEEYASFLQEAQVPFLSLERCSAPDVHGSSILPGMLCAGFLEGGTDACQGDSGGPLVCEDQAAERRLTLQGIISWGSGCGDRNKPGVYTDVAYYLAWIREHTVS
T1 sequence (P00748 20-372 partner limits assumed): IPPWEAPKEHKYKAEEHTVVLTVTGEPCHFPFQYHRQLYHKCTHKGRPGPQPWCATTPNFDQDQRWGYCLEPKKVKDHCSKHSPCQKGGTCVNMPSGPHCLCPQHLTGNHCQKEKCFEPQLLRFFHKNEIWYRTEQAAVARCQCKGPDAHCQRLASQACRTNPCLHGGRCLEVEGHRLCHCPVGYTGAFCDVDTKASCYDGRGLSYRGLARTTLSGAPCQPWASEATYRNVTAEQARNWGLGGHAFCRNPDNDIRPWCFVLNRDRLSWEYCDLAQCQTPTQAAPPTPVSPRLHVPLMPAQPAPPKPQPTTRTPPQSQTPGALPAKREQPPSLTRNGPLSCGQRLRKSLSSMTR
Method: Determination of Human Factor XIIa (hFXIIa) inhibition
The Km for the cleavage of the substrate by hFXIIa was determined by standard transformation of the Michaelis-Menten equation, with subsequent inhibition assays performed at substrate Km concentration.

Sequence of FXa (P00742 235-488 limits assumed): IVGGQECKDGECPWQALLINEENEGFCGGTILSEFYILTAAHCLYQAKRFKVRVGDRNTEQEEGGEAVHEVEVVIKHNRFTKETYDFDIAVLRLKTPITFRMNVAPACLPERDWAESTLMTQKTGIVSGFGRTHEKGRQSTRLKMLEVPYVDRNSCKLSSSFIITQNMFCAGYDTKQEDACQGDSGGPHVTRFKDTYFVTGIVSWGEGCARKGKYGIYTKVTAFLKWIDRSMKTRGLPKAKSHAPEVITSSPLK
Sequence of FXa (P00742 41-179 partner limits assumed): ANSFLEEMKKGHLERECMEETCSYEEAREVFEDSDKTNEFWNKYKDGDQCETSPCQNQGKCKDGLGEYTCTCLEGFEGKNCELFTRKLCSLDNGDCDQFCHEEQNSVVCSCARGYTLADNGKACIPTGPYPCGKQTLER

SMILES	pIC50 [1]	pIC50 [2]
C[C@H]1CN(CCO)Cc2cc(N3CCc4c(C(=O)NCC5CC5)nn(-c5cccc(Cl)c5)c4C3=O)ccc21 [Example 1152, (R)-1-(3-chlorophenyl)-N-(cyclopropylmethyl)-6-(2-(2-hydroxyethyl)-4-methyl-1,2,3,4-tetrahydroisoquinolin-7-yl)-7-oxo-4,5,6,7-tetrahydro-1H-pyrazolo[3,4-c]pyridine-3-carboxamide]	< 4.40	6.00 to 6.52
NC(=O)CN1CCc2ccc(N3CCc4c(C(=O)NCC5CC5)nn(-c5cccc(Cl)c5)c4C3=O)cc2C1=O [Example 1333, 6-(2-(2-amino-2-oxoethyl)-1-oxo-1,2,3,4-tetrahydroisoquinolin-7-yl)-1-(3-chlorophenyl)-N-(cyclopropylmethyl)-7-oxo-4,5,6,7-tetrahydro-1H-pyrazolo[3,4-c]pyridine-3-carboxamide]	< 5.40	6.00 to 6.52
CCNC(=O)c1nn(-c2cccc(Cl)c2)c2c1CCN(c1cccc(N3CCCC3=O)c1)C2=O [Example 1365, 1-(3-chlorophenyl)-N-ethyl-7-oxo-6-(3-(2-oxopyrrolidin-1-yl)phenyl)-4,5,6,7-tetrahydro-1H-pyrazolo[3,4-c]pyridine-3-carboxamide]	< 4.40	5.52 to 6.00
CN1CCc2ccc(N3CCc4c(C(=O)NCCC(=O)O)nn(-c5cccc(Cl)c5)c4C3=O)cc2C1=O [Example 1386, 3-(1-(3-chlorophenyl)-6-(2-methyl-1-oxo-1,2,3,4-tetrahydroisoquinolin-7-yl)-7-oxo-4,5,6,7-tetrahydro-1H-pyrazolo[3,4-c]pyridine-3-carboxamido)propanoic acid]	< 4.40	5.52 to 6.00
CN1CCc2ccc(N3CCc4c(C(=O)NCC5CC5)nn(-c5cccc(C(N)=O)c5)c4C3=O)cc2C1=O [Example 2006, 1-(3-carbamoylphenyl)-N-(cyclopropylmethyl)-6-(2-methyl-1-oxo-1,2,3,4-tetrahydroisoquinolin-7-yl)-7-oxo-4,5,6,7-tetrahydro-1H-pyrazolo[3,4-c]pyridine-3-carboxamide]	< 4.40	4.40 to 5.00
Cc1ccncc1CNC(=O)c1nn(-c2cccc(Cl)c2)c2c1CCN(c1ccc3c(c1)C(=O)N(CCO)CCO3)C2=O [Example 1299, 1-(3-chlorophenyl)-6-(4-(2-hydroxyethyl)-5-oxo-2,3,4,5-tetrahydrobenzo[f][1,4]oxazepin-7-yl)-N-((4-methylpyridin-3-yl)methyl)-7-oxo-4,5,6,7-tetrahydro-1H-pyrazolo[3,4-c]pyridine-3-carboxamide]	4.40 to 5.00	7.00 to 8.00
CN1CCc2ccc(N3CCc4c(COC5(C)COC5)nn(-c5cccc(Cl)c5)c4C3=O)cc2C1=O [Example 1354, 7-(1-(3-chlorophenyl)-3-(((3-methyloxetan-3-yl)oxy)methyl)-7-oxo-1,4,5,7-tetrahydro-6H-pyrazolo[3,4-c]pyridin-6-yl)-2-methyl-3,4-dihydroisoquinolin-1 (2H)-one]	4.40 to 5.00	5.52 to 6.00
CCOC(=O)c1nn(-c2cccc(Cl)c2)c2c1CCN(c1cccc(CN3CCCCC3)c1)C2=O [Example 1007, ethyl 1-(3-chlorophenyl)-7-oxo-6-(3-(piperidin-1-ylmethyl)phenyl)-4,5,6,7-tetrahydro-1H-pyrazolo[3,4-c]pyridine-3-carboxylate]	4.40 to 5.00	6.52 to 7.00
CCCN1CCc2ccc(N3CCc4c(C(=O)NCC5CC5)nn(-c5cccc(Cl)c5)c4C3=O)cc2C1=O [Example 1211, 1-(3-chlorophenyl)-N-(cyclopropylmethyl)-7-oxo-6-(1-oxo-2-propyl-1,2,3,4-tetrahydroisoquinolin-7-yl)-4,5,6,7-tetrahydro-1H-pyrazolo[3,4-c]pyridine-3-carboxamide]	< 4.40	6.00 to 6.52
Cc1ccncc1CNC(=O)c1nn(-c2cccc(C#N)c2)c2c1CCN(c1ccc3c(c1)CN(CCO)CC3)C2=O [Example 2010, 1-(3-cyanophenyl)-6-(2-(2-hydroxyethyl)-1,2,3,4-tetrahydroisoquinolin-7-yl)-N-((4-methylpyridin-3-yl)methyl)-7-oxo-4,5,6,7-tetrahydro-1H-pyrazolo[3,4-c]pyridine-3-carboxamide]	< 4.40	6.52 to 7.00
CN1CCc2ccc(N3CCc4c(C(=O)NC5(C)CC5)nn(-c5cccc(Cl)c5)c4C3=O)cc2C1=O [Example 1359, 1-(3-chlorophenyl)-6-(2-methyl-1-oxo-1,2,3,4-tetrahydroisoquinolin-7-yl)-N-(1-methylcyclopropyl)-7-oxo-4,5,6,7-tetrahydro-1H-pyrazolo[3,4-c]pyridine-3-carboxamide]	< 4.40	6.00 to 6.52
O=C(NCC1CC1)c1nn(-c2cccc(Cl)c2)c2c1CCN(c1ccc3c(c1)CN(CCO)CC31CC1)C2=O [Example 1143, 1-(3-chlorophenyl)-N-(cyclopropylmethyl)-6-(2′-(2-hydroxyethyl)-2′,3′-dihydro-1′H-spiro[cyclopropane-1,4′-isoquinolin]-7′-yl)-7-oxo-4,5,6,7-tetrahydro-1H-pyrazolo[3,4-c]pyridine-3-carboxamide]	5.00 to 5.52	6.52 to 7.00
CCOC(=O)c1nn(-c2cccc(Cl)c2)c2c1CCN(c1cccc(-n3ccccc3=O)c1)C2=O [Example 1350, ethyl 1-(3-chlorophenyl)-7-oxo-6-(3-(2-oxopyridin-1(2H)-yl)phenyl)-4,5,6,7-tetrahydro-1H-pyrazolo[3,4-c]pyridine-3-carboxylate]	5.00 to 5.52	5.00 to 5.52

Second part, the molecule after the results:

pIC50 [1]	pIC50 [2]	SMILES
5.52 to 6.00	7.00 to 8.00	Cc1cn(C)nc1CNC(=O)c1nn(-c2cccc(Cl)c2)c2c(=O)n(-c3ccc4c(c3)CN(C)CC4)c(C)nc12 [Example 3006, 1-(3-chlorophenyl)-N-((1,4-dimethyl-1H-pyrazol-3-yl)methyl)-5-methyl-6-(2-methyl-1,2,3,4-tetrahydroisoquinolin-7-yl)-7-oxo-6,7-dihydro-1H-pyrazolo[4,3-d]pyrimidine-3-carboxamide]
6.00 to 6.52	7.00 to 8.00	Cc1c(Cl)c(CNC(=O)c2nn(-c3cccc(Cl)c3)c3c2CCN(c2ccc4c(c2)C(=O)N(CC(N)=O)CCO4)C3=O)nn1C [Example 1394, 6-(4-(2-amino-2-oxoethyl)-5-oxo-2,3,4,5-tetrahydrobenzo[f][1,4]oxazepin-7-yl)-N-((4-chloro-1,5-dimethyl-1H-pyrazol-3-yl)methyl)-1-(3-chlorophenyl)-7-oxo-4,5,6,7-tetrahydro-1H-pyrazolo[3,4-c]pyridine-3-carboxamide]
4.40 to 5.00	6.52 to 7.00	Cc1c[nH]nc1CNC(=O)c1nn(-c2cccc(Cl)c2)c2c1CCN(c1ccc3c(c1)C(=O)N(C)CC3)C2=O [Example 1248, 1-(3-chlorophenyl)-6-(2-methyl-1-oxo-1,2,3,4-tetrahydroisoquinolin-7-yl)-N-((4-methyl-1H-pyrazol-3-yl)methyl)-7-oxo-4,5,6,7-tetrahydro-1H-pyrazolo[3,4-c]pyridine-3-carboxamide]
< 4.40	6.00 to 6.52	Cc1cnccc1CNC(=O)c1nn(-c2cccc(Cl)c2)c2c1CCN(c1ccc3c(c1)C(=O)N(CCO)CC3)C2=O [Example 1357, 1-(3-chlorophenyl)-6-(2-(2-hydroxyethyl)-1-oxo-1,2,3,4-tetrahydroisoquinolin-7-yl)-N-((3-methylpyridin-4-yl)methyl)-7-oxo-4,5,6,7-tetrahydro-1H-pyrazolo[3,4-c]pyridine-3-carboxamide]
4.40 to 5.00	7.00 to 8.00	O=C(NCc1ccn(C2CC2)n1)c1nn(-c2cccc(Cl)c2)c2c1CCN(c1ccc3c(c1)CN(CCO)CC3)C2=O [Example 1146, 1-(3-chlorophenyl)-N-((1-cyclopropyl-1H-pyrazol-3-yl)methyl)-6-(2-(2-hydroxyethyl)-1,2,3,4-tetrahydroisoquinolin-7-yl)-7-oxo-4,5,6,7-tetrahydro-1H-pyrazolo[3,4-c]pyridine-3-carboxamide]
5.00 to 5.52	7.00 to 8.00	CCN1CCc2ccc(N3CCc4c(C(=O)NCc5cnccc5C)nn(-c5cccc(Cl)c5)c4C3=O)cc2C1 [Example 1140, 1-(3-chlorophenyl)-6-(2-ethyl-1,2,3,4-tetrahydroisoquinolin-7-yl)-N-((4-methylpyridin-3-yl)methyl)-7-oxo-4,5,6,7-tetrahydro-1H-pyrazolo[3,4-c]pyridine-3-carboxamide]
5.52 to 6.00	7.00 to 8.00	Cc1cc(CNC(=O)c2nn(-c3cccc(Cl)c3)c3c2CCN(c2ccc4c(c2)C(=O)N(CC(N)=O)CC4)C3=O)n[nH]1 [Example 1321, 6-(2-(2-amino-2-oxoethyl)-1-oxo-1,2,3,4-tetrahydroisoquinolin-7-yl)-1-(3-chlorophenyl)-N-((5-methyl-1H-pyrazol-3-yl)methyl)-7-oxo-4,5,6,7-tetrahydro-1H-pyrazolo[3,4-c]pyridine-3-carboxamide]
